# Experimental data taken from US20070082910A1, “Specific nad(p)h oxidase inhibitor” (Mitsubishi Pharma Corporation, priority 2003, published 2007).
# Columns and labels:
# [1] = tested on: NAD(P)H oxidase in diabetic rat aorta; assay: Aorta NAD(P)H oxidase inhibitory effect, test compound added to aorta ring specimen in vitro; type: biochemical
# Description: This ring specimen was preincubated in Krebs-Hepes buffer containing the test compound (compound A, compound B or DPI (SIGMA)) at 37° C. for 10 min, and then transferred to Krebs-Hepes buffer containing 0.25 mM lucigenin. […] The total value of chemiluminescence was calculated from AUC of the curve drawn by plotting the chemiluminescence value (vertical axis) relative to the measurement time (horizontal axis). The obtained chemiluminescence value was divided by the wet weight of the vascular ring specimen and standardized to the superoxide anion production per aorta unit weight.
# leukocyte NADPH oxidase = assay: Effect on leukocyte NADPH oxidase (PMA-stimulated lucigenin chemiluminescence); type: cell-based, rat; conditions: for inhibitory rate (%), leukocyte NADPH oxidase: PMA-stimulated rat leukocytes, mean ± standard error; for inhibitory effect on leukocyte NADPH oxidase: result in words
# Description: Blood was drawn from the abdominal aorta of normal male Wister rats (Japan SLC) and immediately mixed with an ice-cold lysis buffer at 42 mL of the buffer per 3 mL of the blood.
# After 5 min, the mixture was centrifuged at 4° C., 1100 rpm for 5 min. The precipitate was suspended in an ice-cold Lysis buffer, and centrifuged again at 4° C., 1100 rpm for 5 min. This operation was repeated 3 times to obtain leukocytes. The obtained leukocytes were suspended in Krebs-Hepes buffer and the number of the cells was adjusted to 1×10^6/ml. 0.25 mM Lucigenin and the test agent were added, Phorbol 12-myristate 13-acetate (hereinafter to be indicated as “PMA”, SIGMA) was further added, and the chemiluminescence value was measured at 37° C. for 10 min.
# The inhibitory rate (%) was calculated by the following formula: inhibitory rate (%)=100−[(A−C)/(B−C))×[…] wherein A is the total chemiluminescence value of the leukocyte suspension with the addition of the test compound, B is the total chemiluminescence value of the leukocyte suspension (control) without addition of the test compound, and C is the total chemiluminescence value of the leukocyte suspension without stimulation with PMA.
# [2] = tested on: NAD(P)H oxidase in normal rat aorta; assay: Effect on normal rat NAD(P)H oxidase (superoxide anion production in aorta after administration); type: in vivo; conditions: 10 mg/kg for 3 days
# Description: The test compound (10 mg/kg) was administered to normal male Wistar rats (Japan SLC) for 3 days, and the production amount of superoxide anion in the aorta was measured in the same manner as in Experimental Example 2.
# The inhibitory rate (%) was calculated by the following formula: inhibitory rate (%)=100−(A/B)×100 wherein A is the standardized chemiluminescence value of the rats administered with the test compound, and B is the standardized chemiluminescence value of the rats without administration of the test compound (control group).
# [3] = tested on: NAD(P)H oxidase in diabetic rat aorta; assay: NAD(P)H oxidase activity (superoxide anion production, lucigenin chemiluminescence) in aorta of streptozotocin diabetic rats after oral administration; type: in vivo; conditions: once a day for 3 days
# Description: Streptozotocin (40 mg/kg) dissolved in 0.05 M citric acid buffer (pH 4.5) was administered into the tail vein of male Wistar rats (Japan SLC) to prepare diabetic rats. At 1 week to 8 weeks from the intravenous injection of streptozotocin, blood was drawn from the tail vein using a capillary treated with heparin, which was immediately cooled with ice and centrifuged at 3000 rpm, 15 min, 4° C. to give serum. The blood glucose level was measured by enzyme assay using a glucose measurement kit “GLU neo sinotest” (sinotest) and a microplate reader (SPECTRA MAX250, Molecular Devices).
# The NAD(P)H oxidase activity was measured by the following method, which was modified by the method of the David. G. Harrison et al. (J. Clin. Invest. 91, 2546-2551, 1993), at 4 days from the start of the test, with superoxide anion production in aorta as an index.
# To be specific, normal rat or diabetic rat free of the above-mentioned treatment was exsanguinated from the abdominal aorta, their thoracic aorta was removed. The removed thoracic aorta was immersed in Krebs-Hepes buffer and marginal tissues were removed to prepare an about 5 mm ring specimen. This ring specimen was preincubate in Krebs-Hepes buffer at 37° C. for 10 min and transferred to Krebs-Hepes buffer containing 0.25 mM lucigenin (SIGMA). 500 μM NADH (SIGMA) was added and chemiluminescence value (chemiluminescence: unit RLU: relative light units) was measured using a luminometer (MULTI-BIOLUMAT LB9505C, Warrack.Berthold) at 37° C. for 10 min. The total value of chemiluminescence was calculated from the area under the curve (hereinafter to be referred to as “AUC”) drawn by plotting the chemiluminescence value (vertical axis) relative to the measurement time (horizontal axis). The measured total value of chemiluminescence was divided by the wet weight of the vascular ring specimen and standardized to the superoxide anion production per aorta unit weight.
# The inhibitory rate (%) was calculated from the following formula: inhibitory rate (%)=100−[(A−C)/(B−C)]×100
# wherein A was the standardized value of chemiluminescence of diabetic rat administered with the test compound, B was the standardized value of chemiluminescence of diabetic rat without administration of the test compound, and C was the standardized value of chemiluminescence of normal rat without administration of the test compound.
# [4] = tested on: cerebral infarction model; assay: Cerebral infarction model (ischemic brain disorder model), ligation of both common carotid arteries; type: in vivo, mouse
# Description: Male ICR mice (Japan SLC) were anesthetized with ether and fixed in the dorsal position. The both common carotid arteries were ligated using a thread. The wound was closed, and the mice were released in a cage. The death of the mouse was confirmed every 30 min up to 240 min, and cumulative mortality rate of each group was determined. Compound B was orally administered 1 hr before common carotid artery ligation.
# NAD(P)H oxidase = assay: IL-8 production inhibitory effect in HUVEC cultured with 44 mM glucose; type: cell-based, human; conditions: for IC50: from dose-effect line by least squares; for inhibitory rate (%) of IL-8 production: 8 days
# Description: NAD(P)HOxidase Inhibitory Effect (Method)
# 44 mM glucose was added to Human Umbilical Vein Endothelial Cells (Bio Whittaker, hereinafter to be indicated as “HUVEC”), and cells were cultured for 8 days. Then, a lysis buffer containing a surfactant, Triton-X Nonidet P-40, was added, and interleukin-8 (hereinafter to be indicated as “IL-8”) in the cell lysate, which had been produced by NAD(P)H oxidase was measured by an enzyme-linked […]. The test compound was added one day before glucose addition.
# The inhibitory rate was calculated from the following formula: inhibitory rate (%)=100−[(A−C)/(B−C)]×100
# wherein A is IL-8 production of a cell cultured in the presence of 44 mM glucose with addition of the test compound, B is IL-8 production of a cell cultured in the presence of 44 mM glucose without addition of the test compound, and C is IL-8 production of a cell cultured in the absence of 44 mM glucose and the test compound. The IC50 value was calculated from the dose-effect line drawn by the least squares method based on the obtained inhibitory rate.
# [5] = test compound concentration 0.01 μM
# [6] = test compound concentration 0.1 μM
# [7] = test compound concentration 1 μM
smiles,measurement,setting,value
"c1ccc2c(c1)[I+]c1ccccc1-2 [DPI, diphenyleneiodonium, reference compound]",inhibitory rate (%),[1]; 200 μM added to aorta ring in vitro,45.1%
same,chemiluminescence (×10^5 RLU/wet weight of aorta),"[1]; 200 μM added to aorta ring in vitro, mean ± standard error",5.2 ± 1.1 ×10^5 RLU/wet weight of aorta
same,NAD(P)H oxidase inhibitory effect on aorta ring in vitro,[1]; result in words,showed an NAD(P)H oxidase inhibitory effect
same,"inhibitory rate (%), leukocyte NADPH oxidase",leukocyte NADPH oxidase; 200 μg/mL,106.7 ± 0.2%
same,inhibitory effect on leukocyte NADPH oxidase,leukocyte NADPH oxidase,showed an inhibitory effect on leukocyte NADPH oxidase
C[C@@H](Nc1nnc(-c2ccccc2)c2ccccc12)c1ccccc1 [compound B],"inhibitory rate (%), NAD(P)H oxidase in normal rat aorta",[2],−1.3%
same,effect on superoxide anion production in normal rat,[2]; result in words,did not affect the superoxide anion production
same,chemiluminescence (×10^5 RLU/wet weight of aorta),"[2]; normal rat aorta, mean ± standard error",4.01 ± 6.0 ×10^5 RLU/wet weight of aorta
same,"inhibitory rate (%), NAD(P)H oxidase in diabetic rat aorta",[3]; 10 mg/kg oral,88.5%
same,number of deaths in interval,"[4]; 1 mg/kg oral 1 hr before ligation, 0-30 min",15
same,number of deaths in interval,"[4]; 1 mg/kg oral, 31-60 min",2
same,number of deaths in interval,"[4]; 1 mg/kg oral, 61-90 min",2
same,number of deaths in interval,"[4]; 1 mg/kg oral, 91-120 min",0
same,number of deaths in interval,"[4]; 1 mg/kg oral, 121-150 min",0
same,number of deaths in interval,"[4]; 1 mg/kg oral, 151-180 min",0
same,number of deaths in interval,"[4]; 1 mg/kg oral, 181-210 min",0
same,number of deaths in interval,"[4]; 1 mg/kg oral, 211-240 min",0
same,cumulative mortality rate,"[4]; 1 mg/kg oral, up to 30 min",78.9%
same,cumulative mortality rate,"[4]; 1 mg/kg oral, up to 60 min",84.2%
same,cumulative mortality rate,"[4]; 1 mg/kg oral, up to 90 min",94.7%
same,number of deaths in interval,"[4]; 3 mg/kg oral 1 hr before ligation, 0-30 min",11
same,number of deaths in interval,"[4]; 3 mg/kg oral, 31-60 min",5
same,number of deaths in interval,"[4]; 3 mg/kg oral, 61-90 min",0
same,number of deaths in interval,"[4]; 3 mg/kg oral, 91-120 min",0
same,number of deaths in interval,"[4]; 3 mg/kg oral, 121-150 min",1
same,number of deaths in interval,"[4]; 3 mg/kg oral, 151-180 min",0
same,number of deaths in interval,"[4]; 3 mg/kg oral, 181-210 min",0
same,number of deaths in interval,"[4]; 3 mg/kg oral, 211-240 min",0
same,cumulative mortality rate,"[4]; 3 mg/kg oral, up to 30 min",57.9%
same,cumulative mortality rate,"[4]; 3 mg/kg oral, up to 60 min",84.2%
same,cumulative mortality rate,"[4]; 3 mg/kg oral, up to 150 min",89.5%
same,number of deaths in interval,"[4]; 10 mg/kg oral 1 hr before ligation, 0-30 min",8
same,number of deaths in interval,"[4]; 10 mg/kg oral, 31-60 min",6
same,number of deaths in interval,"[4]; 10 mg/kg oral, 61-90 min",2
same,number of deaths in interval,"[4]; 10 mg/kg oral, 91-120 min",1
same,number of deaths in interval,"[4]; 10 mg/kg oral, 121-150 min",0
same,number of deaths in interval,"[4]; 10 mg/kg oral, 151-180 min",0
same,number of deaths in interval,"[4]; 10 mg/kg oral, 181-210 min",0
same,number of deaths in interval,"[4]; 10 mg/kg oral, 211-240 min",0
same,cumulative mortality rate,"[4]; 10 mg/kg oral, up to 30 min",40.0%
same,cumulative mortality rate,"[4]; 10 mg/kg oral, up to 60 min",70.0%
same,cumulative mortality rate,"[4]; 10 mg/kg oral, up to 90 min",80.0%
same,cumulative mortality rate,"[4]; 10 mg/kg oral, up to 120 min",85.0%
same,mortality rate improving effect in brain ischemia model,[4]; result in words,a mortality rate improving effect was seen
same,IC50,NAD(P)H oxidase,< 10 nM
same,inhibitory rate (%) of IL-8 production,NAD(P)H oxidase; [5],63.8%
same,inhibitory rate (%) of IL-8 production,NAD(P)H oxidase; [6],77.8%
same,inhibitory rate (%) of IL-8 production,NAD(P)H oxidase; [7],72.0%
same,"inhibitory rate (%), leukocyte NADPH oxidase",leukocyte NADPH oxidase; 1 μM,11.7 ± 24.2%
same,inhibitory effect on leukocyte NADPH oxidase,leukocyte NADPH oxidase,did not show an inhibitory effect on leukocyte NADPH oxidase
O=C(O)c1nn(-c2ccccc2)c2ccccc2c1=O [compound C],"inhibitory rate (%), NAD(P)H oxidase in diabetic rat aorta",[3]; 0.01 mg/kg oral,45%
same,"inhibitory rate (%), NAD(P)H oxidase in diabetic rat aorta",[3]; 0.1 mg/kg oral,90%
same,IC50,NAD(P)H oxidase,15.4 nM
same,inhibitory rate (%) of IL-8 production,NAD(P)H oxidase; [5],−2.5%
same,inhibitory rate (%) of IL-8 production,NAD(P)H oxidase; [6],53.7%
same,inhibitory rate (%) of IL-8 production,NAD(P)H oxidase; [7],97.7%
NC(=O)c1nn(-c2ccccc2)c2ccccc2c1=O [compound D],"inhibitory rate (%), NAD(P)H oxidase in diabetic rat aorta",[3]; 0.01 mg/kg oral,44%
same,"inhibitory rate (%), NAD(P)H oxidase in diabetic rat aorta",[3]; 0.1 mg/kg oral,72%
same,IC50,NAD(P)H oxidase,11.1 nM
same,inhibitory rate (%) of IL-8 production,NAD(P)H oxidase; [5],45.4%
same,inhibitory rate (%) of IL-8 production,NAD(P)H oxidase; [6],98.3%
same,inhibitory rate (%) of IL-8 production,NAD(P)H oxidase; [7],100%
CCOC(=O)c1nn(-c2ccccc2)c2ccccc2c1=O [compound E],IC50,NAD(P)H oxidase,< 10 nM
same,inhibitory rate (%) of IL-8 production,NAD(P)H oxidase; [5],96.3%
same,inhibitory rate (%) of IL-8 production,NAD(P)H oxidase; [7],91.0%
N#Cc1nn(-c2ccccc2)c2ccccc2c1=O [compound F],IC50,NAD(P)H oxidase,943 nM
same,inhibitory rate (%) of IL-8 production,NAD(P)H oxidase; [5],0%
same,inhibitory rate (%) of IL-8 production,NAD(P)H oxidase; [6],0%
same,inhibitory rate (%) of IL-8 production,NAD(P)H oxidase; [7],54.5%
N/C(=N\O)c1nn(-c2ccccc2)c2ccccc2c1=O [compound G],IC50,NAD(P)H oxidase,219 nM
same,inhibitory rate (%) of IL-8 production,NAD(P)H oxidase; [5],39.7%
same,inhibitory rate (%) of IL-8 production,NAD(P)H oxidase; [6],43.9%
same,inhibitory rate (%) of IL-8 production,NAD(P)H oxidase; [7],57.4%
Cc1cc(C)n(-c2nnc(-c3ccccc3)c3ccccc23)n1 [compound H],IC50,NAD(P)H oxidase,69 nM
same,inhibitory rate (%) of IL-8 production,NAD(P)H oxidase; [5],27.6%
same,inhibitory rate (%) of IL-8 production,NAD(P)H oxidase; [6],49.9%
same,inhibitory rate (%) of IL-8 production,NAD(P)H oxidase; [7],83.0%
